{"source": "patent US5775339A", "about": "“Photodynamic therapy of pigment-related lesions” (Pharmacyclics, Inc., priority 1997, dated 1998)", "key": {"B16 murine melanoma": {"test_system": "B16 murine melanoma", "conditions": "B16 murine melanoma model; cited from earlier work"}, "B16F10 melanoma": {"test_system": "B16F10 melanoma", "test": "PDT response (tumor regrowth and survival) to LuT2BET and photoirradiation in melanoma-bearing mice", "type": "in vivo, C57 mice", "description": "(§1) Melanoma Cells: B16F10 melanotic melanoma murine cells were obtained from the University of California, San Francisco Cell Culture Facility. These cells are highly pigmented and metastatic in vivo. Cells were grown in Iscove's Modified Dulbeccos' Medium (Gibco, Grand Island, N.Y.) supplemented with 10% fetal bovine serum (JRH Biosciences, Woodland, Calif.) and penicillin/streptomycin (Sigma, St. Louis, Mo.).\n(§2) Animals and Tumor Model: Inbred C57BL/6N female mice, (C57 mice) seven to eight weeks of age, were obtained from Simonsen Laboratories Inc. (Gilroy, Calif.). The right flanks of the mice were shaved and depiled the day prior to tumor inoculation. B16F10 cells (5×10^5 cells in 0.05 mL PBS) were injected subcutaneously into the right hind flanks. Tumor size, i.e., length (l), width (w), and height (h), was measured 3 times a week with a vernier caliper. Tumor volumes were calculated using the formula for a hemiellipsoid (Rockwell and Kallman, 1972): […]\nStatistical analysis: Values are expressed as mean±SD. Values were compared using the unpaired Student's t-test. In the longevity analysis, Kaplan-Meier survival curves and log rank analysis for statistical significance were used. Statistical significance was assumed if P<0.05.\nThe present example provides results of a study wherein melanoma-bearing mice were administered LuT2BET and photoirradiated. […] PDT response was dependent upon drug dose, irradiation exposure and administration time.\nPDT Protocol: C57 mice, bearing B16F10 melanoma as described in Example 1, were used for PDT experiments when the tumors reached surface diameters of between 4-6 mm and a depth of 2.5-3 mm. […] A 400 μm diameter fiberoptic cable coupled the laser to a microlens which produced uniform light intensity in the treatment field. Light fluences ranged between 150 and 600 J/cm^2, and the power density was set at 150 mW/cm^2 as measured with a power meter (Scientech, Boulder, Colo.). The mice were restrained with laboratory tape during photoirradiation."}, "[1]": {"test": "Biodistribution of LuT2BET in B16 melanoma-bearing mice (fluorescence of tissue extracts and plasma)", "type": "in vivo, C57 mice", "description": "The present example provides results from a study of the biodistribution of lutetium texaphyrin in melanoma-bearing mice. The biodistribution of LuT2BET was analyzed in C57 mice bearing B16 melanoma at 3 h, 5 h, and 24 h after an intravenous administration of 10 or 20 μmol/kg.\nas §1, §2\nBiodistribution studies were performed on tumors having surface diameters of between about 5.5-7 mm and a depth of 4-6 mm.\nTissue Extraction Procedure: LuT2BET was administered via tail-vein injection at 10 or 20 μmol/kg. Tissues and plasma were analyzed at 3, 5 or 24 h post administration of the photosensitizer. Blood was collected in tubes containing 5 mg of solid EDTA and erythrocytes were removed by centrifugation. Plasma samples (125 μL) were mixed with 10 mM TRITON X-100® and analyzed for texaphyrin content by fluorescence. […] Samples were then analyzed for lutetium texaphyrin content by fluorescence (excitation=450 nm, emission=700-800 nm). […] Sensitizer accumulation is expressed as μg drug/g tissue (wet weight) or per mL plasma.\nStatistical analysis: Values are expressed as mean±SD. […]"}, "mammary carcinoma SMT-F": {"test_system": "mammary carcinoma SMT-F", "test": "Radiolabeled [14C]-LuT2BET uptake in SMT-F bearing mice", "type": "in vivo", "conditions": "8.64 μmol/kg; for drug uptake (tumor): radiolabeled", "description": "A dose of 8.64 μmol/kg LuT2BET produced drug uptake values of 5.1 μg/g, 4.7 μg/g, and 2.8 μg/g at 3 h, 5 h, and 24 h after injection, yielding tumor:muscle ratios of 8.45:1, 10:1 and 7:1, respectively."}, "[2]": {"test": "Absorption of LuT2BET in 5% mannitol", "type": "physicochemical", "conditions": "732 nm", "description": "LuT2BET: The synthesis and chemical analysis of lutetium texaphyrin (LuT2BET, texaphyrin A2 of Table 1 where M is lutetium) was provided in U.S. Pat. Nos. 5,252,720 and 5,457,183 and in PCT publication WO 95/10307. LuT2BET was dissolved in 5% mannitol at a 2 mM concentration. LuT2BET absorbs strongly in the far-red region of the electromagnetic spectrum, having a molar extinction coefficient of 23,000 M^-1 cm^-1 in this solution at 732 nm, the wavelength used for photoirradiation."}, "[3]": {"design": "species or system C57 mice", "conditions": "mouse, in vivo", "text": "Tumor Temperature Measurements: Tumor temperature during laser irradiation was monitored with a 33 gauge hypodermic thermocouple probe (Omega Engineering, Stamford, Conn.) placed percutaneously at the base of the tumor."}, "melanoma": {"test_system": "melanoma", "type": "in vivo, human", "conditions": "0.5 μmol/kg i.v., 150 J/cm^2", "description": "A patient with recurrent melanoma received a single dose of LuT2BET (0.5 μmol/kg; 2 mM in 5% mannitol/water; (a human equivalent of 10% of the mouse LD50)), administered intravenously, followed three hours later by photoirradiation by laser (732 nm light, 150 J/cm^2 at a power density of 75 mW/cm^2 using a LAMBDA PLUS® laser, Coherent, Palo Alto, Calif.). Four fields and a total of ten individual lesions were treated."}, "[4]": {"conditions": "10 μmol/kg, 300 J/cm^2, 5 h, n = 6"}, "[5]": {"conditions": "10 μmol/kg, 500 J/cm^2, 5 h, n = 11"}, "[6]": {"conditions": "20 μmol/kg, 150 J/cm^2, 24 h, n = 7"}, "[7]": {"conditions": "20 μmol/kg, 300 J/cm^2, 24 h, n = 7"}}, "note": "Values joined by “and” are separate entries in the source; they are usually repeats but may differ in a detail not shown here. Equal values may be shown once. “Also recorded” adds a separate entry of the source."}
{"compound": "silicon(IV)-naphthalocyanine", "values": [{"measurement": "tumor retardation not associated with thermal effects", "setting": "B16 murine melanoma", "result": "modest"}, {"measurement": "tumor selectivity", "setting": "B16 murine melanoma", "result": "no tumor selectivity"}]}
{"compound": "CC(=O)[O-].CC(=O)[O-].CCc1c(CC)c2cc3nc(cnc4cc(OCCOCCOCCOC)c(OCCOCCOCCOC)cc4ncc4nc(cc1[n-]2)C(CCCO)=C4C)C(C)=C3CCCO.O.[Lu+3]", "note": "[LuT2BET]", "values": [{"measurement": "MST (median survival time following PDT)", "setting": "B16F10 melanoma; 10 μmol/kg, 150 J/cm^2, 3 h, n = 3", "result": 23, "unit": "days"}, {"measurement": "Regrowth (time to reach ten times the original tumor volume)", "setting": "B16F10 melanoma; 10 μmol/kg, 150 J/cm^2, 3 h, n = 12", "result": "15.0 ± 3.38", "unit": "days"}, {"measurement": "inhibition of tumor regrowth, in words", "setting": "B16F10 melanoma; 10 μmol/kg, 300 J/cm^2, 5 h", "result": "no detectable inhibition of tumor regrowth was seen"}, {"measurement": "MST (median survival time following PDT)", "setting": "B16F10 melanoma; [4]", "result": 17, "unit": "days"}, {"measurement": "Regrowth (time to reach ten times the original tumor volume)", "setting": "B16F10 melanoma; [4]", "result": "8.5 ± 3.0 days and 8.5 days"}, {"measurement": "PDT effect, in words", "setting": "B16F10 melanoma; 10 μmol/kg, 400, 500 and 600 J/cm^2, 5 h", "result": "significantly increased the PDT effect"}, {"measurement": "Regrowth (time to reach ten times the original tumor volume)", "setting": "B16F10 melanoma; 10 μmol/kg, 400 J/cm^2, 5 h, n = 7", "result": "11.6 ± 2.1", "unit": "days"}, {"measurement": "MST (median survival time following PDT)", "setting": "B16F10 melanoma; 10 μmol/kg, 400 J/cm^2, 5 h, n = 8", "result": 18.5, "unit": "days"}, {"measurement": "MST (median survival time following PDT)", "setting": "B16F10 melanoma; [5]", "result": 23, "unit": "days"}, {"measurement": "Regrowth (time to reach ten times the original tumor volume)", "setting": "B16F10 melanoma; [5]", "result": "13.2 ± 3.5", "unit": "days"}, {"measurement": "Regrowth (time to reach ten times the original tumor volume)", "setting": "B16F10 melanoma; 10 μmol/kg, 600 J/cm^2, 5 h, n = 5, P<0.0001", "result": "15.6 ± 3.6 days and 15.6 days"}, {"measurement": "MST (median survival time following PDT)", "setting": "B16F10 melanoma; 10 μmol/kg, 600 J/cm^2, 5 h, n = 6", "result": 28, "unit": "days"}, {"measurement": "survival time, in words", "setting": "B16F10 melanoma; 10 μmol/kg, at least about 500 J/cm^2", "result": "A significant increase in survival time"}, {"measurement": "Regrowth (time to reach ten times the original tumor volume)", "setting": "B16F10 melanoma; 10 μmol/kg, no light, n = 5", "result": "7.8 ± 0.8", "unit": "days"}, {"measurement": "MST (median survival time following PDT)", "setting": "B16F10 melanoma; 10 μmol/kg, no light, n = 6", "result": 17.5, "unit": "days"}, {"measurement": "Regrowth (time to reach ten times the original tumor volume)", "setting": "B16F10 melanoma; 20 μmol/kg, 150 J/cm^2, 5 h, n = 8", "result": "10.6 ± 2.9", "unit": "days"}, {"measurement": "MST (median survival time following PDT)", "setting": "B16F10 melanoma; 20 μmol/kg, 150 J/cm^2, 5 h, n = 8, P=0.011", "result": 26, "unit": "days"}, {"measurement": "tumor regrowth, in words", "setting": "B16F10 melanoma; 20 μmol/kg, 150 J/cm^2, 24 h", "result": "did not yield any significant change in tumor regrowth"}, {"measurement": "MST (median survival time following PDT)", "setting": "B16F10 melanoma; [6]", "result": 19, "unit": "days"}, {"measurement": "Regrowth (time to reach ten times the original tumor volume)", "setting": "B16F10 melanoma; [6]", "result": "6.7 ± 0.8", "unit": "days"}, {"measurement": "survival time, in words", "setting": "B16F10 melanoma; 20 μmol/kg, 150 and 300 J/cm^2, 5 h", "result": "A significant increase in survival time"}, {"measurement": "Regrowth (time to reach ten times the original tumor volume)", "setting": "B16F10 melanoma; 20 μmol/kg, 300 J/cm^2, 5 h, n = 13", "result": "15.3 ± 2.6 days and 15.3 days"}, {"measurement": "MST (median survival time following PDT)", "setting": "B16F10 melanoma; 20 μmol/kg, 300 J/cm^2, 5 h, n = 13, P=0.0002", "result": 27, "unit": "days"}, {"measurement": "MST (median survival time following PDT)", "setting": "B16F10 melanoma; [7]", "result": 20, "unit": "days"}, {"measurement": "Regrowth (time to reach ten times the original tumor volume)", "setting": "B16F10 melanoma; [7]", "result": "9.6 ± 2.1 days and 9.6 days"}, {"measurement": "tumor response, in words", "setting": "B16F10 melanoma; 20 μmol/kg, irradiated 5 h after administration, P<0.001", "result": "A significant response"}, {"measurement": "MST (median survival time following PDT)", "setting": "B16F10 melanoma; 20 μmol/kg, no light, n = 5", "result": 15, "unit": "days"}, {"measurement": "Regrowth (time to reach ten times the original tumor volume)", "setting": "B16F10 melanoma; 20 μmol/kg, no light, n = 5", "result": "8.2 ± 2.3", "unit": "days"}, {"measurement": "tumor regrowth, in words", "setting": "B16F10 melanoma; 20 μmol/kg, sensitizer alone", "result": "No significant difference in tumor regrowth"}, {"measurement": "survival time, in words", "setting": "B16F10 melanoma; LuT2BET alone, 10 and 20 μmol/kg, vs controls", "result": "no apparent difference between light alone, LuT2BET alone, and the controls"}, {"measurement": "longevity / survival time overall, in words", "setting": "B16F10 melanoma; PDT, 10 or 20 μmol/kg", "result": "increased longevity of the treated animals; also recorded: in some cases the longevity of the animals was doubled; also recorded: significantly increased the survival time of the melanoma-bearing mice"}, {"measurement": "retardation of tumor growth overall, in words", "setting": "B16F10 melanoma; PDT, 10 or 20 μmol/kg", "result": "significant retardation of growth of the tumor; also recorded: efficacious in the retardation of the highly pigmented B16 melanoma in C57 mice"}, {"measurement": "toxicity", "setting": "[1]; 10 or 20 μmol/kg i.v., biodistribution study", "result": "no toxicity was observed"}, {"measurement": "tumor levels compared with plasma, muscle and skin", "setting": "[1]; mouse, in vivo", "result": "higher than plasma, muscle and skin at all three time points"}, {"measurement": "uptake into B16 melanoma compared to SMT-F", "setting": "[1]; mouse, in vivo", "result": "increased uptake of lutetium texaphyrin into B16 melanoma was observed"}, {"measurement": "tumor:muscle ratio", "setting": "mammary carcinoma SMT-F; 3 h", "result": "8.45 :1"}, {"measurement": "drug uptake (tumor)", "setting": "mammary carcinoma SMT-F; 3 h", "result": 5.1, "unit": "µg/g"}, {"measurement": "tumor:muscle ratio", "setting": "mammary carcinoma SMT-F; 5 h", "result": "10 :1"}, {"measurement": "drug uptake (tumor)", "setting": "mammary carcinoma SMT-F; 5 h", "result": 4.7, "unit": "µg/g"}, {"measurement": "tumor:muscle ratio", "setting": "mammary carcinoma SMT-F; 24 h", "result": "7 :1"}, {"measurement": "drug uptake (tumor)", "setting": "mammary carcinoma SMT-F; 24 h", "result": 2.8, "unit": "µg/g"}, {"measurement": "molar extinction coefficient", "setting": "[2]", "result": "23,000 M^-1 cm^-1"}, {"measurement": "increase in tumor temperature", "setting": "[3]", "result": "No measurable increase in tumor temperature"}, {"measurement": "response of remaining lesions", "setting": "melanoma; several days post-therapy", "result": "the remaining lesions showed no change"}, {"measurement": "response of several larger lesions", "setting": "melanoma; several days post-therapy", "result": "several of the larger lesions had decreased in size"}, {"measurement": "response of several smaller lesions", "setting": "melanoma; several days post-therapy", "result": "several of the smaller lesions had disappeared"}, {"measurement": "response of lesions at two months", "setting": "melanoma; two months post-therapy", "result": "continued to show improvement"}]}
